Non-standard residues stand in square brackets, D forms with d. Residues, ends and D or L forms follow the SMILES beside them. No end group written: not given here. *: point of attachment. Dabcyl = CN(C)c1ccc(N=Nc2ccc(C(=O)*)cc2)cc1; EDANS = O=S(=O)(O)c1cccc2c(NCCN*)cccc12; AllylGly = C=CC[C@H](N)C(=O)O; Abu = CC[C@H](N)C(=O)O; Lac = C[C@H](O)C(=O)O
Legend:
HCV NS3 protease [1] = target: T1, HCV NS3 protease (Hepatitis C virus genotype 1b, UniProt P26663); experiment: Competitive inhibition of NS3 protease by decapeptides P6-P4' modified at position P1; format: biochemical
Sequence of HCV NS3 protease (P26663 1039-1206 limits assumed): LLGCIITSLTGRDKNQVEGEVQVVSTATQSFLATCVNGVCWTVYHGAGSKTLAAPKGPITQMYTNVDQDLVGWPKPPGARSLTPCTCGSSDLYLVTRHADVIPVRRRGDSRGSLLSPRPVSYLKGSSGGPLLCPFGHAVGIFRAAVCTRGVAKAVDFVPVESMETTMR
T1 construct: The protein fragments contain variants of the protease domain of the HCV NS3 protein; added initiator Met (ATG start codon) (N); made in house
T1 sequence (P26663 1027-1208): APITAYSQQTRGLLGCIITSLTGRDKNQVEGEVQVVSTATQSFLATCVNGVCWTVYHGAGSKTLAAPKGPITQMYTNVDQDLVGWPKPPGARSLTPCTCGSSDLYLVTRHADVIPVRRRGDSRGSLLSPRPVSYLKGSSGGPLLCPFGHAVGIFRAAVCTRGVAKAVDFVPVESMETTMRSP
Method: (§1) Cleavage was detected by separating the substrate from the hydrolysis products by reverse-phase HPLC. For this purpose the mixture containing the buffer and the peptide incubated with the protease was injected into a reverse-phase Lichrospher RP-18 column (Merck) and eluted with an acetonitrile gradient containing 0.10% trifluoracetic acid. The cleavage products were identified by co-injection of appropriate standards, and by mass spectrometry. For these experiments, proteins produced by one of the methods described in examples 1 and 2 were used.
(§2) Dependence of the activity on temperature was analysed by means of an Arrhenius plot in which the logarithm of the kinetic constant Kcat is given as an inverse function of temperature.

NS3 protease = target: T2, NS3 protease (Hepatitis C virus genotype 1b, UniProt P26663); format: biochemical, hepatitis C virus (HCV)
T2 construct: The protein fragments contain variants of the protease domain of the HCV NS3 protein; added initiator Met (ATG start codon) (N); made in house
T2 sequence (P26663 1027-1208): as above
Text: Using the HPLC-based assay, the following kinetic parameters were obtained for the radioactive depsipeptide substrate S1 (SEQ ID NO:44):
Synthesis of the radioactive depsipeptide substrates allows set-up of a high-throughput assay for determination of NS3 protease activity as schematically illustrated in FIG. 11. The principle is the following: both the intact substrate and the N-terminal fragment that originates from enzyme cleavage (Ac-Asp-Glu-Met-Glu-Glu-Abu-OH) (SEQ ID NO:49) are extremely acid, whereas the C-terminal fragment [HO-CH(CH3)CO-Ser-His-Leu-Pro-Tyr-Lys(N^ε -[^3 H]-CH3 CO)-NH2 ] (SEQ ID NO:50) is, according to pH, neutral or basic. It is therefore possible to capture the two acidic species on an anionic exchange resin, leaving the C-terminal fragment in solution. If the C-terminal fragment contains a radioactive marker (in this case the tritiated acetate covalently bonded to the ε-amino group of the C-terminal lysine), the resin will be able to discriminate processed substrate from non-processed substrate, thus making it possible to quantify proteolytic activity by measuring the amount of radioactivity remaining in solution after incubation with the enzyme and treatment with the ion exchanger. […]
Purification to >98% homogeneity was achieved through preparative HPLC on a Nucleosyl C-18 column (250×21 mm, 7 μm) using as eluents (A) 50 mM ammonium acetate, pH 6 and (B) acetonitrile. […] The kinetic parameters for this substrate, evaluated through the HPLC-based assay (see FIG. 14A), were the following:
The buffer used for the assay is the following: 33 mM DTT, 50 mM Tris, pH 7, 50% glycerol, 2% CHAPS. […] The assay can be run in a cuvette or in a (96-well) microtitre plate, monitoring the fluorescence as a function of time (Excitation wavelength […], Emission wavelength […]). The increase in fluorescence upon substrate cleavage is 13-fold. […]

HCV protease = target: T3, HCV protease (Hepatitis C virus genotype 1b, UniProt P26663); experiment: Effect of chymostatin on HCV protease activity; format: biochemical; details: 100 μg/ml used in homogenisation
T3 construct: added initiator Met (ATG start codon) (N); made in house; host or cells: E. coli BL21(DE3)
T3 sequence (P26663 1027-1206): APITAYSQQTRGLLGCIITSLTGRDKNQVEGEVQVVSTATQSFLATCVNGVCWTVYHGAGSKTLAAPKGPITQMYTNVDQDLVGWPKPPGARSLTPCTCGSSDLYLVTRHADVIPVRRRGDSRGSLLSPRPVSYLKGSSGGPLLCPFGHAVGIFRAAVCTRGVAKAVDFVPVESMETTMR
Method: 1. Homogenisation in the presence of 100 μg/ml of the chymostatin protease inhibitor. […] In this way it was possible to purify a single molecular species with more than 95% of form 2.

HCV NS3 protease [2] = details: Example 4 amide substrate
Method: as §1, §2

NS3 protease + Pep4A = experiment: Automatic assay using a radioactive amide substrate with anionic exchanger capture; format: biochemical, hepatitis C virus (HCV); details: 3 hours at 23° C., 40 μM unlabeled peptide, 200 nM protease, 1 μM Pep4A
Sequence of NS3 protease + Pep4A (P26663 1039-1206, other chains not shown): as the sequence (P26663 1039-1206 limits assumed) above
Method: 400,000 cpm of the labelled peptide with a specific activity of 2-10 Ci/mmol. were incubated for 3 hours at 23° C. together with 40 μM (Km /2) of unlabeled peptide in the presence of 200 nM protease and 1 μM of Pep4A in 50 mM Tris pH 7.5, 50% glycerol, 3% CHAPS, 10 mM DTT. […] The fraction coming out of the exchanger is filtered, allowed to sediment or spun. The radioactivity is measured on the clear fraction, the amount of which is exclusively related to the right fragment (C-terminal), given that the amide substrate and the left hand fragment remain bound to the anionic exchanger. The addition of inhibitors causes a decrease in the release rate of the labelled cleaved fragment.

[3] = system: CSCC[C@H](NC(=O)[C@H](CCC(=O)O)NC(=O)[C@H](CC(=O)O)NC(C)=O)C(=O)N[C@@H](CCC(=O)O)C(=O)N[C@@H](CCC(=O)O)C(=O)N[C@@H](CS)C(=O)N[C@@H](C)C(=O)N[C@@H](CO)C(=O)N[C@@H](Cc1c[nH]cn1)C(=O)N[C@@H](CC(C)C)C(=O)O; experiment: HPLC assay of peptide substrate cleavage by purified NS3 protease in the presence of Pep4A; format: biochemical, hepatitis C virus (HCV); details: other: Table 2, stoichiometric concentration, pH 7.5, 25.0 °C
Text: (§3) As mentioned above, the protein NS4A is a cofactor of HCV protease. N and C-terminal deletion experiments have defined the peptide Pep4A with the sequence indicated in SEQ ID NO:6, as the minimum domain still capable of inducing optimal activation. In transfection or in vitro translation experiments the addition of polypeptides containing the minimum NS4A sequence is essential to give effective cleavage. […] The kinetic characteristics of this activation are described below. Using a titration experiment a stoichiometry of 1:1 was determined for this interaction at a concentration of […] of protease, indicating a Kd<300 nM.
(§4) These kinetics were obtained both in the absence and in the presence of stechiometric concentrations of Pep4A. […] When the Km values for the single substrates are compared it becomes evident that the presence of two negative charges in P5 and in P6 determined the bonding effectiveness of a peptide substrate.

[4] = system: CC(=O)N[C@@H](CC(=O)O)C(=O)N[C@@H](CS)C(=O)N[C@@H](CO)C(=O)N[C@H](C(=O)N1CCC[C@H]1C(=O)N[C@@H](CS)C(=O)N[C@@H](CO)C(=O)NCC(=O)N[C@@H](CO)C(=O)N[C@@H](Cc1c[nH]c2ccccc12)C(=O)O)[C@@H](C)O; experiment: as above; format: biochemical, hepatitis C virus (HCV); details: other: Table 2, stoichiometric concentration, pH 7.5, 25.0 °C
Text: as §3, §4

[5] = system: CSCC[C@H](NC(=O)[C@H](CO)NC(=O)[C@H](CS)NC(=O)[C@H](CS)NC(=O)[C@@H](NC(=O)[C@@H](NC(=O)[C@H](CC(=O)O)NC(=O)[C@H](CCC(=O)O)NC(C)=O)C(C)C)C(C)C)C(=O)N[C@@H](CO)C(=O)N[C@@H](Cc1ccc(O)cc1)C(=O)O; experiment: as above; format: biochemical, hepatitis C virus (HCV); details: other: Table 2, stoichiometric concentration, pH 7.5, 25.0 °C
Text: as §3, §4

[6] = radioactive depsipeptide substrates, HPLC-based assay

CC[C@H](NC(=O)[C@H](CCC(=O)O)NC(=O)[C@H](CCC(=O)O)NC(=O)[C@H](CCSC)NC(=O)[C@H](CCC(=O)O)NC(=O)[C@H](CC(=O)O)NC(C)=O)C(=O)N[C@@H](C)C(=O)N[C@@H](CO)C(=O)N[C@@H](Cc1c[nH]cn1)C(=O)N[C@@H](CC(C)C)C(=O)O [Abu] (Ac-DEMEE[Abu]ASHL-OH)
Ki (HCV NS3 protease [1]): 175 µM

C=CC[C@H](NC(=O)[C@H](CCC(=O)O)NC(=O)[C@H](CCC(=O)O)NC(=O)[C@H](CCSC)NC(=O)[C@H](CCC(=O)O)NC(=O)[C@H](CC(=O)O)NC(C)=O)C(=O)N[C@@H](C)C(=O)N[C@@H](CO)C(=O)N[C@@H](Cc1c[nH]cn1)C(=O)N[C@@H](CC(C)C)C(=O)O [Alg] (Ac-DEMEE[AllylGly]ASHL-OH)
Ki (HCV NS3 protease [1]): 165 µM

CC[C@H](NC(=O)[C@H](CCC(=O)O)NC(=O)[C@H](CCC(=O)O)NC(=O)[C@H](CC(=O)NCCNc1cccc2c(S(=O)(=O)O)cccc12)NC(=O)[C@H](CCC(=O)O)NC(=O)[C@H](CC(=O)O)NC(C)=O)C(=O)O[C@@H](C)C(=O)N[C@@H](CO)C(=O)N[C@@H](CCCCNC(=O)c1ccc(N=Nc2ccc(N(C)C)cc2)cc1)C(N)=O [S3, Ac-Asp-Glu-Asp-(EDANS)-Glu-Glu-Abu-.psi.[COO)-Ala-Ser-Lys-(DABCYL)NH2] (Ac-DED(EDANS)EE[Abu][Lac]SK(Dabcyl)-NH2)
kcat /Km (NS3 protease; fluorogenic depsipeptide, same buffer): 5342 M⁻¹ s⁻¹

CC(C)C[C@H](NC(=O)[C@@H](NC(=O)N[C@@H](Cc1ccccc1)C(=O)O)[C@@H]1CCN=C(N)N1)C(=O)N[C@H](C=O)Cc1ccccc1 [chymostatin]
inhibition of HCV protease activity (HCV protease): does not inhibit

Ac-Asp-Glu-Met-Glu-Glu-Abu-.psi.-[COO]-Ala-Ser-His-Leu-Pro-Tyr-Lys(N^ ε -[^3 H]-CH3 CO)-NH2 [SEQ ID NO:44]
Km (NS3 protease; [6]): 11 µM
kcat (NS3 protease; [6]): 0.15 s⁻¹

Ac-Asp-Glu-Met-Glu-Glu-Cys-Ala-Ser-His-Leu-Pro-Tyr-Lys-ε-(^3 H)Ac (XEMEECASHLPYX; N-acetyl; tritiated epsilon-acetyl) [SEQ ID NO:47]
Km (HCV NS3 protease [2]): 79 µM
kcat (HCV NS3 protease [2]): 0.00817 s⁻¹
kcat /Km (HCV NS3 protease [2]): 103 M⁻¹ s⁻¹
peptide substrate cleaved (NS3 protease + Pep4A): 20%

Ac-DEMEEAASHL [Ala]
Ki (HCV NS3 protease [1]): 173 µM

Ac-DEMEETASHL [Thr]
Ki (HCV NS3 protease [1]): 215 µM

Ac-DEMEEVASHL [Val]
Ki (HCV NS3 protease [1]): 173 µM

HCV NS3 protease + Pep4A (NS4A cofactor peptide) (Hepatitis C virus (isolate BK))
Km [3]: 43 µM
kcat [3]: 0.0233 s⁻¹
kcat/Km [3]: 540 M⁻¹ s⁻¹
Km [4]: 320 µM
Km [5]: 380 µM
kcat [5]: 0.25 s⁻¹
kcat/Km [5]: 650 M⁻¹ s⁻¹

— US6197536A, “Methodology to produce, and purify and assay polypeptides with the proteolytic activity of the HCV NS3 protease” (priority 1995, dated 2001)
